Data reported in ChEMBL document CHEMBL1150555, “Anti-histaminic activity of bromopyrrole alkaloids isolated from Caribbean Agelas sponges” (Bioorg Med Chem Lett, 1997).
Activity calls are given as the source filed them. No cut-off for these calls is given here.

Columns and labels:
Agelas clathrodes = assay: Distribution in Carribean Agelas clathrodes was determined and expressed as % dry weight; type: functional
Agelas conifera = assay: Distribution in Carribean Agelas conifera was determined and expressed as % dry weight; type: functional
Agelas dispar = assay: Distribution in Carribean Agelas dispar was determined and expressed as % dry weight; type: functional
agelas longissima = assay: Distribution in Carribean Agelas longissima was determined and expressed as % dry weight; type: functional
Cavia porcellus [1] = species: Cavia porcellus; assay: Apparent affinity towards histamine receptor was determined and expressed as pD2
Cavia porcellus [2] = species: Cavia porcellus; assay: Apparent affinity towards histamine receptor was determined and expressed as pD2; IA = Inactive

Question: Which results are given for `NC1=N/C(=C\C(O)CNC(=O)c2cc(Br)c[nH]2)C(=O)N1` (stereo not given)?
Answer: Dry weight (Agelas clathrodes): 0.5%; Dry weight (Agelas conifera): 3.5%; Dry weight (Agelas dispar): 0.2%; Dry weight (agelas longissima): 3.3%; pD2 (Cavia porcellus [1]): 4.34

Question: How did the Dry weight (Agelas clathrodes) turn out when `Nc1nc([C@H]2[C@H](CNC(=O)c3cc(Br)c[nH]3)[C@@H](CNC(=O)c3cc(Br)c[nH]3)[C@@H]2c2c[nH]c(N)n2)c[nH]1` was run?
Answer: 15.1%

Question: What about the Dry weight (Agelas conifera) of the same compound?
Answer: 8.8%

Question: What about the Dry weight (Agelas dispar) of the same compound?
Answer: 15.5%

Question: And the Dry weight (agelas longissima)?
Answer: 2.5%

Question: And the pD2 (Cavia porcellus [1])?
Answer: 4.24

Question: What does the source list for `C[N+]1=CNC[C@]1(C)CC(NC(=O)c1cc(Br)c[nH]1)C(=O)[O-]` (stereo not given in full)?
Answer: Dry weight (Agelas clathrodes): 7.2%; Dry weight (Agelas conifera): 0%; Dry weight (Agelas dispar): 0%; Dry weight (agelas longissima): 0%; pD2 (Cavia porcellus [2]): inactive

Question: How did the Dry weight (Agelas clathrodes) turn out when `NC1=N/C(=C\C(O)CNC(=O)c2cc(Br)c(Br)[nH]2)C(=O)N1` (stereo not given) was run?
Answer: 3.2%

Question: And the Dry weight (Agelas conifera)?
Answer: 0.8%

Question: What about the Dry weight (Agelas dispar) of the same compound?
Answer: 3.5%

Question: What about the Dry weight (agelas longissima) of the same compound?
Answer: 1.1%

Question: What about the pD2 (Cavia porcellus [1]) of the same compound?
Answer: 4.48

Question: How did the Dry weight (Agelas clathrodes) turn out when `NC1=N/C(=C\CCNC(=O)c2cc(Br)c[nH]2)C(=O)N1` was run?
Answer: 0.5%

Question: And the Dry weight (Agelas conifera)?
Answer: 3.5%

Question: And the Dry weight (Agelas dispar)?
Answer: 0.2%

Question: What about the Dry weight (agelas longissima) of the same compound?
Answer: 3.3%

Question: What about the pD2 (Cavia porcellus [1]) of the same compound?
Answer: 5.33

Question: With `NC1=N/C(=C\CCNC(=O)c2cc(Br)c(Br)[nH]2)C(=O)N1` as the compound, how does the Dry weight (Agelas clathrodes) read?
Answer: 3.2%

Question: And the Dry weight (Agelas conifera)?
Answer: 0.8%

Question: What about the Dry weight (Agelas dispar) of the same compound?
Answer: 3.5%

Question: What about the Dry weight (agelas longissima) of the same compound?
Answer: 1.1%

Question: What about the pD2 (Cavia porcellus [1]) of the same compound?
Answer: 5.52

Question: For `Nc1ncc(/C=C/CNC(=O)c2cc(Br)c(Br)[nH]2)[nH]1`, which Dry weight (Agelas clathrodes) is on record?
Answer: 2.1%

Question: What about the Dry weight (Agelas conifera) of the same compound?
Answer: 2.1%

Question: And the Dry weight (Agelas dispar)?
Answer: 4.2%

Question: And the Dry weight (agelas longissima)?
Answer: 4.1%

Question: And the pD2 (Cavia porcellus [1])?
Answer: 4.02
